Reference: patent US12636305B2, “Composition and method of applying same to increase survival of fish following catch-and-release situations” (Dutch Creek Nymphing, LLC, priority 2022, dated 2026)
Values joined by “and” are separate entries in the source; they are usually repeats but may differ in a detail not shown here. Equal entries are not always repeated.

System: Zebrafish, Danio rerio
Test: Zebrafish swim exhaustion test (vessel plunger model)
Assay type: in vivo
Parameters: Immediate recovery 20 min later, % Control (change from the control treatment as a percentage of the control treatment): concentration or dose not given beside the values
Details: for Immediate recovery 20 min later, % Control (change from the control treatment as a percentage of the control treatment) / Immediate recovery 20 min later, Average: 20 minutes after treatment; for Immediate recovery 20 min later, % Control (change from the control treatment as a percentage of the control treatment): versus water control; for Immediate recovery 20 min later, Average: average of 8 fish; for Immediate recovery 20 min later, Average / Immediate recovery 20 min later (water vortex revolutions per minute when the fish failed to maintain swimming in place): post exhaustion; for Immediate recovery 20 min later (water vortex revolutions per minute when the fish failed to maintain swimming in place): individual fish (8 per treatment), 20 minutes after application of the treatment
From the text: This study utilizes a well-recognized vessel plunger model system to determine fish exhaustion during maximal swim performance trials (Usui T, Noble […]. The French press: a repeatable and high-throughput approach to exercising zebrafish (Danio rerio). […] In brief, zebrafish is placed in the top compartment above plunger and evaluated for its ability to swim against circular water currents created by a rotating magnetic stir bar positioned below the plunger. […] Next, the fish is brought to the water surface with the aid of a plunger and the composition is administered to the fish using one of the possible methods of administration. The fish is lowered back into the top compartment, and the individual maximum swimming speed is determined again (post-exhaustion value). This experimental setup allows one to determine the highest tolerated continuous swimming speed associated with control, exhaustion and recovery conditions that models catching, fighting, landing, treating, and releasing fish. […] The experimental methodology was substantially similar to the methods discussed in Usui, et al. (2018). […] Each treatment was administered to eight Zebrafish (n=104 total fish). […] Initial swim strength was measured prior to exhaustion of the fish and subsequent administration of the selected treatment and therefore serves as a baseline. […] After the initial swim strength test, the fish swam to exhaustion (as defined in Usui, et al. […] As anticipated by the Applicant, even post-treatment the fish became exhausted at a lower rpm, but there were significant differences in when each treatment group began to tire.

N=C(N)NCCC[C@H](N)C(=O)O [Arginine, arginine]
Immediate recovery 20 min later, % Control (change from the control treatment as a percentage of the control treatment): 17% | Immediate recovery 20 min later, Average: 484 rpm | Immediate recovery 20 min later (water vortex revolutions per minute when the fish failed to maintain swimming in place): 520 rpm (2×) and 510 rpm and 550 rpm and 450 rpm and 580 rpm and 460 rpm and 280 rpm

O=C(O)CN(CCN(CC(=O)O)CC(=O)O)CC(=O)O [EDTA, ethylenediaminetetraacetic acid]
Immediate recovery 20 min later, % Control (change from the control treatment as a percentage of the control treatment): 8% | Immediate recovery 20 min later, Average: 446 rpm | Immediate recovery 20 min later (water vortex revolutions per minute when the fish failed to maintain swimming in place): 460 rpm (3×) and 430 rpm and 410 rpm (2×) and 420 rpm and 520 rpm

CC(C)C[C@H](N)C(=O)O [Leucine, leucine]
Immediate recovery 20 min later, % Control (change from the control treatment as a percentage of the control treatment): 10% | Immediate recovery 20 min later, Average: 455 rpm | Immediate recovery 20 min later (water vortex revolutions per minute when the fish failed to maintain swimming in place): 460 rpm and 400 rpm and 470 rpm (2×) and 510 rpm and 490 rpm and 390 rpm and 450 rpm

C/C=C/C=C/C(=O)[O-].[K+] [Potassium sorbate, potassium sorbate]
Immediate recovery 20 min later, % Control (change from the control treatment as a percentage of the control treatment): 5% | Immediate recovery 20 min later, Average: 433 rpm | Immediate recovery 20 min later (water vortex revolutions per minute when the fish failed to maintain swimming in place): 380 rpm and 420 rpm and 440 rpm and 460 rpm (2×) and 390 rpm and 500 rpm and 410 rpm

CC(=O)C(=O)O [Pyruvate, pyruvate]
Immediate recovery 20 min later, % Control (change from the control treatment as a percentage of the control treatment): 9% | Immediate recovery 20 min later, Average: 451 rpm | Immediate recovery 20 min later (water vortex revolutions per minute when the fish failed to maintain swimming in place): 420 rpm (2×) and 430 rpm and 450 rpm (2×) and 510 rpm and 520 rpm and 410 rpm

O=C([O-])[O-].O=C([O-])[O-].OO.OO.OO.[Na+].[Na+].[Na+].[Na+] [Sodium percarbonate, sodium percarbonate]
Immediate recovery 20 min later, % Control (change from the control treatment as a percentage of the control treatment): 24% | Immediate recovery 20 min later, Average: 514 rpm | Immediate recovery 20 min later (water vortex revolutions per minute when the fish failed to maintain swimming in place): 540 rpm (2×) and 500 rpm and 590 rpm and 530 rpm and 430 rpm and 520 rpm and 460 rpm

salt
Immediate recovery 20 min later, % Control (change from the control treatment as a percentage of the control treatment): 14% | Immediate recovery 20 min later, Average: 471 rpm | Immediate recovery 20 min later (water vortex revolutions per minute when the fish failed to maintain swimming in place): 410 rpm and 490 rpm (2×) and 510 rpm (2×) and 480 rpm (2×) and 400 rpm
